We go through 4 molecules from patent US20260200925A1, “SMALL MOLECULE INHIBITORS OF KRAS MUTATED PROTEINS” (MERCK SHARP & DOHME LLC, priority 2021, published 2026).

One test deals with G13D (Homo sapiens, UniProt P01116, G13D). Nature of the test: Guanine nucleotide exchange (GNE) assay, G13D. The format is biochemical.
The target of the next test is NRAS (SEQ ID NO: 5) (Homo sapiens, UniProt P01111). Nature of the test: SOS-catalyzed guanine nucleotide exchange (GNE) assay, NRAS.
The next test deals with HRAS (SEQ ID NO: 4) (Homo sapiens, UniProt P01112). Nature of the test: SOS-catalyzed guanine nucleotide exchange (GNE) assay, HRAS.
HRAS (SEQ ID NO: 4), sequence (P01112 with tags, fused parts or gaps): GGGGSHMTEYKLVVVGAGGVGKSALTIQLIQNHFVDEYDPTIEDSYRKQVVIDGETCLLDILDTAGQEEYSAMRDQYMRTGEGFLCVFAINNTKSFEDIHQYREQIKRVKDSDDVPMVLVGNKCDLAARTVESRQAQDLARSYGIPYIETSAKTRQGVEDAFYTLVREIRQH
Test [1] deals with NCI-H358 cells containing homozygous KRAS-G12C activating mutation (p-ERK). As to conditions: Homo sapiens, NCI-H358, 2 h, read-out: G12C H358 IC50 (nM).
Experimental: Procedure for Cellular Phospho-ERK Assay, G12C
NCI-H358 cells (ATCC® CRL-5807™), containing homozygous KRAS-G12C activating mutation, were cultured in T150 flask in growth medium (RPMI medium 1640-GlutaMAX™—I (ThermoFisher Scientific 61870) containing 10% fetal bovine serum (ThermoFisher Scientific 10091148)). The cells were harvested in growth medium after TrypLE (ThermoFisher scientific 12604021) digestion and were seeded in a 384-well collagen coated cell culture plate (Corning 356702) at a density of 15,000 cells/well, and incubated at 37° C., 5% CO2 overnight. […] RPMI medium 1640-GlutaMAX™—I was added to the intermediate plate and the contents of the intermediate plate were then transferred to the 384-well collagen coated cell culture plate, which was incubated at 37° C., 5% CO2 for 2 hours. After removal of medium from the collagen coated cell culture plate, cells were lysed in lysis buffer from Alpha SureFire® Ultra™ Multiplex p-ERK and total ERK assay kit (PerkinElmer MPSU-PTERK) containing Halt™ Protease and Phosphatase inhibitor cocktail (ThermoFisher Scientific 78446) at room temperature with constant shaking at 300 rpm for 30 minutes. The cell lysates were then transferred to an OptiPlate-384 plate (PerkinElmer 6005620), and the phosphorylation of ERK (p-ERK) and total ERK levels were detected by Alpha SureFire® Ultra™ Multiplex p-ERK kit and total ERK assay kit (PerkinElmer MPSU-PTERK) following the manufacturer's protocol. Assay plates were read on an EnVision Multimode Plate Reader (PerkinElmer), and the ratio of p-ERK vs. total ERK in each well was used as the final readout. Dose response curves were analyzed using a 4-parameter logistic model to calculate IC50 values using Spotfire software.
Test [2] addresses Recombinant KRAS-G12D (SEQ ID NO: 2) (Homo sapiens, UniProt P01116, G12D). Nature of the test: SOS-catalyzed guanine nucleotide exchange (GNE) assay, KRAS-G12D.
Experimental: (§1) Specifically, the SOS-catalyzed nucleotide exchange assay utilizes a preformed time-resolved fluorescence resonance energy transfer (TR-FRET) complex containing a specific biotinylated RAS protein (KRAS-G12C/V/D, HRAS, NRAS; described above) with BODIPY-GDP, and Terbium-streptavidin. Test compounds are preincubated with this complex for 60 minutes.
(§2) To assemble the preformed TR-FRET complexes, each biotinylated RAS protein is diluted to 2 μM in an EDTA Buffer (20 mM HEPES, 50 mM sodium chloride, 10 mM EDTA, and 0.01% Tween) and incubated at room temperature for one hour. This mixture is then further diluted to 90 nM in an Assay Buffer (20 mM HEPES, 150 mM sodium chloride, 10 mM magnesium chloride, and 0.005% Tween) containing 15 nM of Terbium-Streptavidin (Invitrogen, catalog #PV3577) and 900 nM of BODIPY-GDP (Invitrogen, catalog #G22360) and incubated at room temperature for six hours. It should be noted that this preformed TR-FRET complex for each of the RAS proteins was made ahead of time, aliquoted and stored at −80° C. until the day of the experiment.
(§3) Once titrations are made, 10 nL of the diluted compounds is acoustically dispensed into a 384-well assay plate (Corning, catalog #3820) using an Echo 550 (Labcyte). Each well of the assay plate subsequently receives 3 μL of a specific 3× RAS preformed TR-FRET complex and 3 μL of Assay Buffer and is incubated at room temperature for 60 minutes (preincubation time). […] The final reaction in each well of 9 μL consists of 3 mM GTP, and the specific RAS and SOS proteins in the following concentrations: KRAS-G12C/SOS=3 nM/40 nM, KRAS-G12D/SOS=1 nM/40 nM, KRAS-G12V/SOS=1.25 nM/160 nM, HRAS/SOS=1.25 nM/40 nM, and NRAS/SOS=1.25 nM/40 nM.
(§4) The TR-FRET signal is measured on an Envision (PerkinElmer) plate reader: Excitation filter=340 nm; emission 1=495 nm; emission 2=520 nm; dichroic mirror=D400/D505; delay time=100 ms. The signal of each well is determined as the ratio of the emission at 520 nm to that at 495 nm. […] The apparent effect as a function of compound concentration is fit to a four-parameter logistic equation to calculate IC50 values using Spotfire software.
In test [3] the target is Recombinant KRAS-G12V (SEQ ID NO: 3) (Homo sapiens, UniProt P01116, G12V). Description: SOS-catalyzed guanine nucleotide exchange (GNE) assay, KRAS-G12V.
Recombinant KRAS-G12V (SEQ ID NO: 3), sequence (P01116 with tags, fused parts or gaps isoform P01116-2 G12V): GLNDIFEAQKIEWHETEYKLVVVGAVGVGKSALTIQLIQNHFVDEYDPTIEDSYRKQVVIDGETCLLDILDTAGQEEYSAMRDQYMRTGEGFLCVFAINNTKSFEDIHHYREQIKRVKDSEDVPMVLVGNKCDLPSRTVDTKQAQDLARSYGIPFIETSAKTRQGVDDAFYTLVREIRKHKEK
Experimental: as §1, §2, §3, §4
The subject of test [4] is AsPC-1 cells containing homozygous KRAS-G12D activating mutation (p-ERK). As to conditions: Homo sapiens, ASPC1, 2 h, read-out: KRAS G12D ASPC-1 IC50 (nM).
Experimental: Procedure for Cellular Phospho-ERK Assay, G12D
AsPC-1 cells (ATCC® CRL-1682™), containing homozygous KRAS-G12D activating mutation, were cultured in T150 flask in growth medium (RPMI medium 1640-GlutaMAX™—I (ThermoFisher Scientific 61870) containing 10% fetal bovine serum (ThermoFisher Scientific 10091148)). The cells were harvested in growth medium after TrypLE (ThermoFisher scientific 12604021) digestion and were seeded in a 384-well collagen coated cell culture plate (Corning 356702) at a density of 15,000 cells/well, and incubated at 37° C., 5% CO2 overnight. […] RPMI medium 1640-GlutaMAX™—I was added to the intermediate plate and the contents of the intermediate plate were then transferred to the 384-well collagen coated cell culture plate, which was incubated at 37° C., 5% CO2 for 2 hours. After removal of medium from the collagen coated cell culture plate, cells were lysed in lysis buffer from Alpha SureFire® Ultra™ Multiplex p-ERK and total ERK assay kit (PerkinElmer MPSU-PTERK) containing Halt™ Protease and Phosphatase inhibitor cocktail (ThermoFisher Scientific 78446) at room temperature with constant shaking at 300 rpm for 30 minutes. The cell lysates were then transferred to an OptiPlate-384 plate (PerkinElmer 6005620), and the phosphorylation of ERK (p-ERK) and total ERK levels were detected by Alpha SureFire® Ultra™ Multiplex p-ERK kit and total ERK assay kit (PerkinElmer MPSU-PTERK) following the manufacturer's protocol. Assay plates were read on a EnVision Multimode Plate Reader (PerkinElmer), and the ratio of p-ERK vs. total ERK in each well was used as the final readout. Dose response curves were analyzed using a 4-parameter logistic model to calculate IC50 values using Spotfire software.

NRAS (SEQ ID NO: 5), sequence (P01111 with tags, fused parts or gaps): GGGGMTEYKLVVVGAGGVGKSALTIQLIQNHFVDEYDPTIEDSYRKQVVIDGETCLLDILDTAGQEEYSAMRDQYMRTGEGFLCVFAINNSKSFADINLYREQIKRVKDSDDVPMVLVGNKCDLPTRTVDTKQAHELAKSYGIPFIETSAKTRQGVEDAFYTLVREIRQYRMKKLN
G13D, sequence (P01116 1-188 isoform P01116-2 G13D): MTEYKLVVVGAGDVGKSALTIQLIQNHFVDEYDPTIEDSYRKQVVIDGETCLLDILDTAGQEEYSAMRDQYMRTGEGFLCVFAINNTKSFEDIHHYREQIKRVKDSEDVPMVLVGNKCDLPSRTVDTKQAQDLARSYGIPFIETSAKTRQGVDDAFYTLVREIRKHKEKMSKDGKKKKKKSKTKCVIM
Recombinant KRAS-G12D (SEQ ID NO: 2), sequence (P01116 with tags, fused parts or gaps isoform P01116-2 G12D): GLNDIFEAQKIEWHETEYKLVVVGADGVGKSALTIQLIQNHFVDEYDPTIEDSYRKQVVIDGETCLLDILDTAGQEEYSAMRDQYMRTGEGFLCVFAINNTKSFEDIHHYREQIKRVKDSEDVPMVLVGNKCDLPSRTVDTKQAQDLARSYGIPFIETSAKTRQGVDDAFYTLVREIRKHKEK
Experimental for G13D: as §4

A word on the IC50: it is the concentration at which inhibition is half-maximal. Take `C#Cc1cccc2cc(O)cc(-c3c(F)cc4c(N5CCC[C@@](C)(O)C5)nc(OC[C@@]56CCCN5C[C@H](F)C6)nc4c3F)c12` [Ex-42, (3R)-1-(7-(8-ethynyl-3-hydroxvnaphthalen-1-yl)-6,8-difluoro-2-(((2R,7aS)-2-fluorotetrahydro-1H-pyrrolizin-7a(5H)-yl)methoxy)quinazolin-4-yl)-3-methylpiperidin-3-ol]: the concentration for half-maximal inhibition (IC50) is 4 nM at G13D; > 10000 nM against NRAS (SEQ ID NO: 5); > 10000 nM on HRAS (SEQ ID NO: 4); 58 nM in test [1]; 3 nM in test [2]; 3 nM in test [3]. For the same molecule, the IC50 in test [4] worked out at 91 nM.
`Cc1cc2[nH]ncc2c(-c2c(F)cc3c(N4CCOC[C@@](C)(O)C4)nc(OC[C@@]45CCCN4C[C@H](F)C5)nc3c2F)c1C(F)(F)F` [Ex-41, (6S)-4-(6,8-difluoro-2-(((2R,7aS)-2-fluorotetrahydro-1H-pyrrolizin-7a(5H)-yl)methoxy)-7-(6-methyl-5-(trifluoromethyl)-1H-indazol-4-yl)quinazolin-4-yl)-6-methyl-1,4-oxazepan-6-ol]: the IC50 on G13D was 48 nM; on NRAS (SEQ ID NO: 5), > 11100 nM; at HRAS (SEQ ID NO: 4), > 11100 nM; in test [1] it was 203 nM; in test [2], 33 nM; in test [3] it was 60 nM. For the same molecule, in test [4], the half-inhibitory concentration (IC50) came out at 285 nM.
For `C#Cc1cccc2cc(O)cc(-c3c(Cl)cc4c(N5CCC[C@@](C)(O)C5)nc(OC[C@@]56CCCN5C[C@H](F)C6)nc4c3F)c12` [Ex-1, (3R)-1-(6-chloro-7-(8-ethynyl-3-hydroxvnaphthalen-1-yl)-8-fluoro-2-(((2R,7aS)-2-fluorotetrahydro-1H-pyrrolizin-7a(5H)-yl)methoxy)quinazolin-4-yl)-3-methylpiperidin-3-ol], the IC50 is > 9950 nM on NRAS (SEQ ID NO: 5), > 9950 nM against HRAS (SEQ ID NO: 4), 41 nM in test [1] and 70 nM in test [4].
Turning to `CN(C)CC1(COc2nc(N3CCCC(O)CC3)c3cc(Cl)c(-c4ccc(F)c5sc(N)nc45)c(F)c3n2)CC1` (centres unmarked) [Ex-17, 1-(7-(2-amino-7-fluorobenzo[d]thiazol-4-yl)-6-chloro-2-((1-((dimethylamino)methyl)cyclopropyl)methoxy)-8-fluoroquinazolin-4-yl)azepan-4-ol], the half-inhibitory concentration (IC50) at G13D was 341 nM; at NRAS (SEQ ID NO: 5) it was > 9950 nM; against HRAS (SEQ ID NO: 4), > 9950 nM; in test [2] it was 283 nM; in test [3], 237 nM.
